Where two headings read alike, the source gives them in different places.
Assays:
HIV-1 = assay: in vitro anti-HIV assay: inhibition of the HIV-induced cytopathic effect in MT-4 cells (MTT); assay type: cell-based; conditions: OD 540 nm
Protocol: (§1) A rapid, sensitive and automated assay procedure was used for the in vitro evaluation of anti-HIV agents. An HIV-1 transformed T4-cell line, MT-4, which was previously shown (Koyanagi et al., Int. J. Cancer, 36, 445-451, 1985) to be highly susceptible to and permissive for HIV infection, served as the target cell line. Inhibition of the HIV-induced cytopathic effect was used as the end point. The viability of both HIV- and mock-infected cells was assessed spectrophotometrically via the in situ reduction of 3-(4,5-dimethylthiazol-2-yl)-2,5-diphenyltetrazolium bromide (MTT). […] The percent protection achieved by the compound in HIV-infected cells was calculated by the following formula: [formula]
(§2) whereby (ODT)HIV is the optical density measured with a given concentration of the test compound in HIV-infected cells; (ODC)HIV is the optical density measured for the control untreated HIV-infected cells: (ODC)MOCK is the optical density measured for the control untreated mock-infected cells; all optical density values were determined at 540 nm. […] The ratio of CC50 to IC50 was defined as the selectivity index (SI).

[1] = cytotoxicity in mock-infected MT-4 cells (MTT); assay type: cell-based; conditions: human, mock-infected MT-4 cells, 50% cytotoxic concentration; reduces absorbance of mock-infected MT-4 control by 50%; MTT
Protocol: as §1, with “An HIV-1 transformed T4-cell line, MT-4, which was previously shown (Koyanagi et al., Int. J. Cancer, 36, 445-451, 1985) to be highly susceptible to and permissive for HIV infection, served as the target cell line.” left out
as §2

[2] = tested on: MT-4 cells (mock-infected); assay: cytotoxicity in mock-infected MT-4 cells (MTT); assay type: cell-based
Protocol: as §1, with “An HIV-1 transformed T4-cell line, MT-4, which was previously shown (Koyanagi et al., Int. J. Cancer, 36, 445-451, 1985) to be highly susceptible to and permissive for HIV infection, served as the target cell line.” left out
as §2

[3] = Human immunodeficiency virus 1, MT4, dose achieving 50% protection of HIV-infected MT-4 cells against cytopathic effect
[4] = dose achieving 50% protection of HIV-infected MT-4 cells against cytopathic effect
[5] = 50% cytotoxic concentration, reduces absorbance of mock-infected MT-4 control by 50%, MTT, read-out: CC50

Row | SMILES | IC50 (HIV-1; [3]) [µM] | melting point [°C] | CC50 [1] [µM] | IC50 (HIV-1; [4]) [µM] | CC50 [2] [µM] | CC50 [2, 5] [µM]
1 | CCCCCCCC(=O)Nc1cc(Cc2c(Cl)cccc2Cl)nc(Nc2ccc(C#N)cc2)n1 [Compound 17, N-[6-[(2,6-dichloro-phenyl)methyl]-2-[(4-cyano-phenyl)amino]-4-pyrimidinyl]octanamide] | 0.167 | 135 to 137 | 9.1 |  |  | 
2 | Cc1cc(Br)c(Nc2ccnc(Nc3ccc(C#N)cc3)n2)c(Br)c1 [Compound 61, 4-[[4-[(2,6-dibromo-4-methylphenyl)amino]-2-pyrimidinyl]amino]benzonitrile] | 0.0007 |  | 0.1 |  |  | 
3 | CN(C)C=Nc1cc(Cc2c(Cl)cccc2Cl)nc(Nc2ccc(C#N)cc2)n1 [Compound 26, N′-[2-[(4-cyanophenyl)amino]-6-[(2,6-dichlorophenyl)methyl]-4-pyrimidinyl]-N,N-dimethylmethanimidamide] | 0.011 | 175 to 180 | 33.5 |  |  | 
4 | N#Cc1ccc(Nc2nc(Cc3c(Cl)cccc3Cl)cc(NC(=O)CN3CCCCC3)n2)cc1 [Compound 25, N-[6-[(2,6-dichloro-phenyl)methyl]-2-[(4-cyano-phenyl)amino]-4-pyrimidinyl]-1-piperidine-acetamide] | 0.079 | 175 to 180 | > 100 |  |  | 
5 | N#Cc1ccc(Nc2nc(Cc3c(Cl)cccc3Cl)cc(NCCCO)n2)cc1 [Compound 3, 4-[[4-[(2,6-dichloro-phenyl)methyl]-6-[(3-hydroxypropyl)amino]-2-pyrimidinyl]amino]benzonitrile] | 0.016 |  | 37.4 |  |  | 
6 | Cc1cc(C)c(Nc2ccnc(Nc3ccc(C#N)cc3)n2)c(C)c1 [Compound 52, 4-[[4-[(2,4,6-trimethylphenyl)amino]-2-pyrimidinyl]amino]benzonitrile] | 0.001 |  | 2.08 |  |  | 
7 | N#Cc1ccc(Nc2cc(Cc3c(Cl)cccc3Cl)nc(NCCCN3CCCC3=O)n2)cc1 [Compound 39, 4-[[6-[(2,6-dichloro-phenyl)methyl]-2-[[3-(2-oxo-1-pyrrolidinyl)propyl]amino]-4-pyrimidinyl]amino]benzonitrile] | 1.53 |  | > 100 |  |  | 
8 | CCCc1cc(Br)c(Nc2ccnc(Nc3ccc(C#N)cc3)n2)c(Br)c1 [Compound 79] |  |  |  | 0.0031 | 4.8 | 
9 | N#Cc1ccc(Nc2nc(N)cc(Cc3c(Cl)cccc3Cl)n2)cc1 [Compound 23] |  |  |  | 0.001 | 47.9 | 
10 | N#Cc1ccc(Nc2nc(Cc3c(Cl)cccc3Cl)cc(NCC(O)CO)n2)cc1 (centres unmarked) [Compound 9] |  |  |  | 0.037 | 58.6 | 
11 | N#Cc1ccc(Nc2cc(Cc3c(Cl)cccc3Cl)nc(N)n2)cc1 [Compound 45] |  |  |  | 0.01 |  | 56.3
12 | Nc1cc(Cc2c(Cl)cccc2Cl)nc(Nc2ccc(Br)cc2)n1 [Compound 27] |  |  |  | 0.017 |  | > 20
13 | Cc1cc(C)c(Nc2ccnc(Nc3ccc(Br)cn3)n2)c(C)c1 [Compound 98] |  |  |  | 2 | 13.8 | 
14 | Nc1cc(Cc2c(Cl)cccc2Cl)nc(Nc2ccc(F)cc2)n1 [Compound 33] |  |  |  | 0.042 |  | 43.4
15 | Cc1cc(C)c(Nc2cc(Nc3ccc(C#N)cc3)nc(N)n2)c(C)c1 [Compound 95] |  |  |  | 0.0006 | 7.7 | 
16 | N#Cc1ccc(Nc2nccc(Nc3c(Cl)cc(Cl)cc3Cl)n2)cc1 [Compound 72] |  |  |  | 0.0007 | 0.5 | 
17 | N#CCCNc1cc(Cc2c(Cl)cccc2Cl)nc(Nc2ccc(C#N)cc2)n1 [Compound 19] |  |  |  | 0.006 | 53.6 | 
18 | Cc1cc(Cl)cc(C)c1Nc1ccnc(Nc2ccc(C#N)cc2)n1 [Compound 75] |  |  |  | 0.0021 | 1.9 | 

Row | SMILES | IC50 (HIV-1; [3]) [µM] | melting point [°C] | CC50 [1] [µM] | IC50 (HIV-1; [4]) [µM] | CC50 [2] [µM] | CC50 [2, 5] [µM]
19 | Cc1cnc(Nc2ccc(C#N)cc2)nc1Nc1c(C)cc(C(C)(C)C)cc1C [Compound 84] |  |  |  | 0.012 | 9.3 | 
20 | Nc1cc(Cc2c(Cl)cccc2Cl)nc(Nc2ccc(Br)cn2)n1 [Compound 32] |  |  |  | 0.403 |  | > 100
21 | Cc1cnc(Nc2ccc(C#N)cc2)nc1Nc1c(C)cc(C#N)cc1C [Compound 89, 4-[[2-[(4-cyanophenyl)amino]-5-methyl-4-pyrimidinyl]amino]-3,5-dimethylbenzonitrile] | 0.0007 |  | 0.4 |  |  | 
22 | N#Cc1ccc(Nc2nccc(Nc3c(Cl)cc(F)cc3Br)n2)cc1 [Compound 67] |  |  |  | 0.0024 | 0.4 | 
23 | Nc1cc(Cc2c(Cl)cccc2Cl)nc(Nc2ccccc2)n1 [Compound 37] |  |  |  | 0.443 |  | 33.4
24 | N#Cc1ccc(Nc2nccc(Nc3c(F)cc(Br)cc3Br)n2)cc1 [Compound 70] |  |  |  | 0.0006 | 5.8 | 
25 | Cc1cc(C)c(Sc2ccnc(Nc3ccc(C#N)cc3)n2)c(C)c1 [Compound 73] |  |  |  | 0.0036 | > 100 | 
26 | N#Cc1ccc(Nc2nccc(Nc3c(Cl)cc(C(F)(F)F)cc3Cl)n2)cc1 [Compound 66, 4-[[4-[[2,6-dichloro-4-(trifluoromethyl)-phenyl]amino]-2-pyrimidinyl]amino]benzonitrile] | 0.0085 |  | 19.9 |  |  | 
27 | Cc1c(N)nc(Nc2ccc(CC#N)cc2)nc1Cc1c(Cl)cccc1Cl [Compound 103] |  |  |  | 0.022 | > 100 | 
28 | Nc1nc(Cc2c(Cl)cccc2Cl)cc(Nc2ccc(Cl)cc2)n1 [Compound 30] |  |  |  | 0.088 |  | > 20
29 | Cc1cc(C)c(Nc2ccnc(Nc3ccc(C#N)cc3N)n2)c(C)c1 [Compound 90] |  |  |  | 3.4 | 30.8 | 
30 | N#Cc1ccc(Nc2nc(Cc3c(Cl)cccc3Cl)cc(NCCN3CCCC3)n2)cc1 [Compound 13, 4-[[4-[(2,6-dichloro-phenyl)methyl]-6-[[2-(1-pyrrolidinyl)ethyl]amino]-2-pyrimidinyl]amino]benzonitrile] | 0.005 | 80 to 85 | 7.8 |  |  | 
31 | N#Cc1ccc(Nc2nc(Cc3c(Cl)cccc3Cl)cc(NCCOCCO)n2)cc1 [Compound 6] |  |  |  | 0.02 | 24.4 | 
32 | Cc1cc(C)c(Nc2ccnc(Nc3ccc(C(N)=O)cc3)n2)c(C)c1 [Compound 100, 4-[[4-[(2,4,6-trimethylphenyl)amino]-2-pyrimidinyl]amino]benzamide] | 0.075 |  | 0.8 |  |  | 
33 | Cc1cc(C)c(Oc2ccnc(Nc3ccc(C#N)cc3)n2)c(C)c1 [Compound 58, 4-[[4-(2,4,6-trimethylphenoxy)-2-pyrimidinyl]amino]benzonitrile] | 0.0029 |  | > 100 |  |  | 
34 | Cc1cc(Cl)cc(Cl)c1Oc1ccnc(Nc2ccc(C#N)cc2)n1 [Compound 64] |  |  |  | 0.12 | > 100 | 
35 | Cc1cc(C(C)(C)C)cc(C)c1Nc1ccnc(Nc2ccc(C#N)cc2)n1 [Compound 80] |  |  |  | 0.011 | 8.7 | 

— patent US6440986B2, “HIV Inhibiting pyrimidine derivatives” (Janssen Pharmaceutica, N.V., priority 1998, dated 2002)
